Reference: patent US20240059703A1 (AMGEN INC., priority 2021, published 2024)

Key:
KRAS G12C = KRAS G12C (Homo sapiens (Human), UniProt P01116, C118A/G12C); experiment: 2 h coupled exchange assay; assay type: biochemical; details: Avg 2 h Coupled exchange IC50, 2 h compound pre-incubation
Description: The term “2 h coupled exchange assay” or “20 h coupled exchange assay” as used herein refers to the assay described in the Section entitled “BIOLOGICAL EVALUATION.”

[1] = tested on: A549 (human lung carcinoma) cells; experiment: Cell Viability Assay (CellTiter-Glo), A549; assay type: cell-based; details: Homo sapiens, A549, 72 h
Procedure, shortened: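 After a 72 h exposure to serial compound dilutions at 37° C, luminescent ATP content was measured with CellTiter-Glo. The cells were A549 or MIA PaCa-2, seeded at 1.67E+04 cells/mL in RPMI 1640 with 10% serum. Signals were normalized to DMSO controls and IC50 fitted with a 4-parameter logistic model.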

[2] = tested on: MIA PaCa-2 (human pancreatic carcinoma) cells; experiment: Cell Viability Assay (CellTiter-Glo), MIA PaCa-2; assay type: cell-based; details: Homo sapiens, MIA PaCa-2, 72 h
Description: Serially-diluted compound or DMSO was added to the cells, and plates were incubated at 37° C., 5% CO2 for 72 h. Cell viability was measured using a CellTiter-Glo® Luminescent Cell Viability Assay kit (Promega) according to the manufacturer's protocol. The luminescence signal of treated samples was normalized to DMSO control, and data were analyzed using a 4-parameter logistic model to calculate IC50 values.

Sequence of KRAS G12C (P01116 other isoform, or with tags, fused parts or gaps G12C/C118A): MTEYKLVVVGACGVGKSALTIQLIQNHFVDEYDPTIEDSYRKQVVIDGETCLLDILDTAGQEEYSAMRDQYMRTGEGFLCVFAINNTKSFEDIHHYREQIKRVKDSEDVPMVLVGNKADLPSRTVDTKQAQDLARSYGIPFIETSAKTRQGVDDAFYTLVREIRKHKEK

IC50 (KRAS G12C) [nM]	IC50 [1] [nM]	IC50 [2] [nM]	Compound
211	15400	2090	C=CC(=O)N1CC2(CCN(c3nc4c(c(-c5ccccc5F)c3C#N)CCN(C3CCCN(C)C3)C4)C2)C1 [Example 21-30, 4-(2-fluorophenyl)-7-((3R)-1-methyl-3-piperidinyl)-2-(2-(2-propenoyl)-2,6-diazaspiro[3.4]octan-6-yl)-5,6,7,8-tetrahydro-1,7-naphthyridine-3-carbonitrile 4-(2-fluorophenyl)-7-((3S)-1-methyl-3-piperidinyl)-2-(2-(2-propenoyl)-2,6-diazaspiro[3.4]octan-6-yl)-5,6,7,8-tetrahydro-1,7-naphthyridine-3-carbonitrile]
641	> 5000	738	Cc1ncsc1N1CCc2c(nc(N3CCC4(CN(C(=O)/C=C/CN(C)C)C4)C3)c(C#N)c2-c2ccccc2F)C1 [Example 21-31, 2-(2-((2E)-4-(dimethylamino)-2-butenoyl)-2,6-diazaspiro[3.4]octan-6-yl)-4-(2-fluorophenyl)-7-(4-methyl-1,3-thiazol-5-yl)-5,6,7,8-tetrahydro-1,7-naphthyridine-3-carbonitrile]
355	8220	1450	C=CC(=O)N1CC2(CCN(c3nc4c(c(-c5ccc(F)cc5F)c3C#N)CCN(C3CCCN(C)C3)C4)C2)C1 [Example 21-32, 4-(2,4-difluorophenyl)-7-((3R)-1-methyl-3-piperidinyl)-2-(2-(2-propenoyl)-2,6-diazaspiro[3.4]octan-6-yl)-5,6,7,8-tetrahydro-1,7-naphthyridine-3-carbonitrile|4-(2,4-difluorophenyl)-7-((3S)-1-methyl-3-piperidinyl)-2-(2-(2-propenoyl)-2,6-diazaspiro[3.4]octan-6-yl)-5,6,7,8-tetrahydro-1,7-naphthyridine-3-carbonitrile]
957	16100	5520	C=CC(=O)N1CC2(CCN(c3nc4c(c(-c5ccccc5F)c3C#N)CCN(C[C@@H]3CCC(=O)N3)C4)C2)C1 [Example 21-33, 4-(2-fluorophenyl)-7-(((2S)-5-oxo-2-pyrrolidinyl)methyl)-2-(2-(2-propenoyl)-2,6-diazaspiro[3.4]octan-6-yl)-5,6,7,8-tetrahydro-1,7-naphthyridine-3-carbonitrile]
911	> 25000	6290	C=CC(=O)N1CC2(CCN(c3nc4c(c(-c5ccccc5F)c3C#N)CCN(C(=O)[C@@H]3CCCN3C)C4)C2)C1 [Example 21-34, 4-(2-fluorophenyl)-7-(1-methyl-L-prolyl)-2-(2-(2-propenoyl)-2,6-diazaspiro[3.4]octan-6-yl)-5,6,7,8-tetrahydro-1,7-naphthyridine-3-carbonitrile]
167	> 5000	174	C=CC(=O)N1CC2(CCN(c3nc4c(c(-c5cc(O)ccc5Cl)c3C#N)CCN(C3CCCN(C)C3)C4)C2)C1 [Example 21-36, 4-(2-chloro-5-hydroxyphenyl)-7-((3R)-1-methyl-3-piperidinyl)-2-(2-(2-propenoyl)-2,6-diazaspiro[3.4]octan-6-yl)-5,6,7,8-tetrahydro-1,7-naphthyridine-3-carbonitrile 4-(2-chloro-5-hydroxyphenyl)-7-((3S)-1-methyl-3-piperidinyl)-2-(2-(2-propenoyl)-2,6-diazaspiro[3.4]octan-6-yl)-5,6,7,8-tetrahydro-1,7-naphthyridine-3-carbonitrile]
90	> 5000	461	C=CC(=O)N1CC2(CCN(c3nc4c(c(-c5ccccc5F)c3C#N)CCN(C3CC3)C4)C2)C1 [Example 21-37, 7-cyclopropyl-4-(2-fluorophenyl)-2-(2-(2-propenoyl)-2,6-diazaspiro[3.4]octan-6-yl)-5,6,7,8-tetrahydro-1,7-naphthyridine-3-carbonitrile]
178	> 5000	196	C=CC(=O)N1CC2(CCN(c3nc4c(c(-c5ccccc5F)c3C#N)CCN(C(C)CN(C)C)C4)C2)C1 [Example 21-38, 7-((2R)-1-(dimethylamino)-2-propanyl)-4-(2-fluorophenyl)-2-(2-(2-propenoyl)-2,6-diazaspiro[3.4]octan-6-yl)-5,6,7,8-tetrahydro-1,7-naphthyridine-3-carbonitrile 7-((2S)-1-(dimethylamino)-2-propanyl)-4-(2-fluorophenyl)-2-(2-(2-propenoyl)-2,6-diazaspiro[3.4]octan-6-yl)-5,6,7,8-tetrahydro-1,7-naphthyridine-3-carbonitrile]
1120	17600	7180	C=CC(=O)N1CC2(CCN(c3nc4c(c(-c5ccccc5F)c3C#N)CCN(CCCOC)C4)C2)C1 [Example 21-39, 4-(2-fluorophenyl)-7-(3-methoxypropyl)-2-(2-(2-propenoyl)-2,6-diazaspiro[3.4]octan-6-yl)-5,6,7,8-tetrahydro-1,7-naphthyridine-3-carbonitrile]
222	> 5000	> 5000	C=CC(=O)N1CC2(CCN(c3nc4c(c(-c5cc(O)ccc5Cl)n3)CCC(c3scnc3C)C4)C2)C1 [Example 22-4, 1-(6-((7R)-4-(2-chloro-5-hydroxyphenyl)-7-(4-methyl-1,3-thiazol-5-yl)-5,6,7,8-tetrahydro-2-quinazolinyl)-2,6-diazaspiro[3.4]octan-2-yl)-2-propen-1-one| 1-(6-((7S)-4-(2-chloro-5-hydroxyphenyl)-7-(4-methyl-1,3-thiazol-5-yl)-5,6,7,8-tetrahydro-2-quinazolinyl)-2,6-diazaspiro[3.4]octan-2-yl)-2-propen-1-one]
178	> 5000	507	C=CC(=O)N1CC2(CCN(c3nc4c(c(-c5ncccc5C)c3C#N)CCC(c3scnc3C)=C4)C2)C1 [Example 23-1, 4-(3-Methyl-2-pyridinyl)-7-(4-methyl-1,3-thiazol-5-yl)-2-(2-(2-propenoyl)-2,6-diazaspiro[3.4]octan-6-yl)-5,6-dihydro-3-quinolinecarbonitrile]
26	12600	164	C=CC(=O)N1CC2(CCN(c3nc4c(c(-c5ccccc5C)c3C#N)CCC(c3scnc3C)C4)C2)C1 [Example 23-2, (7R)-4-(2-methylphenyl)-7-(4-methyl-1,3-thiazol-5-yl)-2-(2-(2-propenoyl)-2,6-diazaspiro[3.4]octan-6-yl)-5,6,7,8-tetrahydro-3-quinolinecarbonitrile (7S)-4-(2-methylphenyl)-7-(4-methyl-1,3-thiazol-5-yl)-2-(2-(2-propenoyl)-2,6-diazaspiro[3.4]octan-6-yl)-5,6,7,8-tetrahydro-3-quinolinecarbonitrile]
72	3690	918	C=CC(=O)N1CC2(CCN(c3nc4c(c(-c5ccccc5F)c3C#N)CCC(c3scnc3C)=C4)C2)C1 [Example 23-7, 4-(2-fluorophenyl)-7-(4-methyl-1,3-thiazol-5-yl)-2-(2-(2-propenoyl)-2,6-diazaspiro[3.4]octan-6-yl)-5,6-dihydro-3-quinolinecarbonitrile]
169	> 5000	2240	C=CC(=O)N1CC2(CCN(c3nc4c(c(-c5ccccc5F)c3C#N)COC(c3scnc3C)C4)C2)C1 [Example 23-8, (7R)-4-(2-fluorophenyl)-7-(4-methyl-1,3-thiazol-5-yl)-2-(2-(2-propenoyl)-2,6-diazaspiro[3.4]octan-6-yl)-7,8-dihydro-5H-pyrano[4,3-b]pyridine-3-carbonitrile(7S)-4-(2-fluorophenyl)-7-(4-methyl-1,3-thiazol-5-yl)-2-(2-(2-propenoyl)-2,6-diazaspiro[3.4]octan-6-yl)-7,8-dihydro-5H-pyrano[4,3-b]pyridine-3-carbonitrile]
531	16200	916	C=CC(=O)N1CC2(CCN(c3nc4c(c(-c5ncccc5C)c3C#N)CC[C@](C)(c3scnc3C)C4)C2)C1 [Example 23-9, (7S)-7-methyl-4-(3-methyl-2-pyridinyl)-7-(4-methyl-1,3-thiazol-5-yl)-2-(2-(2-propenoyl)-2,6-diazaspiro[3.4]octan-6-yl)-5,6,7,8-tetrahydro-3-quinolinecarbonitrile]
200	> 5000	478	C=CC(=O)N1CC2(CCN(c3nc4c(c(-c5ncccc5C)c3C#N)CC[C@@](C)(c3scnc3C)C4)C2)C1 [Example 23-10, (7R)-7-methyl-4-(3-methyl-2-pyridinyl)-7-(4-methyl-1,3-thiazol-5-yl)-2-(2-(2-propenoyl)-2,6-diazaspiro[3.4]octan-6-yl)-5,6,7,8-tetrahydro-3-quinolinecarbonitrile]
53	> 5000	637	C=CC(=O)N1CC2(CCN(c3nc4c(c(-c5ccccc5C)c3C#N)CCC(c3scnc3C)=C4)C2)C1 [Example 23-11, 4-(2-methylphenyl)-7-(4-methyl-1,3-thiazol-5-yl)-2-(2-(2-propenoyl)-2,6-diazaspiro[3.4]octan-6-yl)-5,6-dihydro-3-quinolinecarbonitrile]
108	4070	754	C=CC(=O)N1CC2(CCN(c3nc4c(c(-c5ccccc5F)c3C#N)CC[C@](C)(c3scnc3C)C4)C2)C1 [Example 23-12, (7S)-4-(2-fluorophenyl)-7-methyl-7-(4-methyl-1,3-thiazol-5-yl)-2-(2-(2-propenoyl)-2,6-diazaspiro[3.4]octan-6-yl)-5,6,7,8-tetrahydro-3-quinolinecarbonitrile]
